This assay deals with T1, CmedPR2 (with CmedORco) (Cnaphalocrocis medinalis, UniProt A0A0U3BFF0).
T1 sequence (A0A0U3BFF0 1-434): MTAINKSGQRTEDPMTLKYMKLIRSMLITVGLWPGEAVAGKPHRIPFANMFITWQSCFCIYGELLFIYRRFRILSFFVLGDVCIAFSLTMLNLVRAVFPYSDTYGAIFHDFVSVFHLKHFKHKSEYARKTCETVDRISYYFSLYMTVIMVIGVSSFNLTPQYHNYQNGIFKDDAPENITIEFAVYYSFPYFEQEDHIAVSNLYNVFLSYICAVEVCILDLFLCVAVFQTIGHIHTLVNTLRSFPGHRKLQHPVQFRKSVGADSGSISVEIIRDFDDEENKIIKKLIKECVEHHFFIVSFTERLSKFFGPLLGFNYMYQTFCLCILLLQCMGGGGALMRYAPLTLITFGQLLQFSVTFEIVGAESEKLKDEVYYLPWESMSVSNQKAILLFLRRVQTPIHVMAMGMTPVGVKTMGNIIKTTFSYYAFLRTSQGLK
T1 sequence (H9XFD5 1-473 partner): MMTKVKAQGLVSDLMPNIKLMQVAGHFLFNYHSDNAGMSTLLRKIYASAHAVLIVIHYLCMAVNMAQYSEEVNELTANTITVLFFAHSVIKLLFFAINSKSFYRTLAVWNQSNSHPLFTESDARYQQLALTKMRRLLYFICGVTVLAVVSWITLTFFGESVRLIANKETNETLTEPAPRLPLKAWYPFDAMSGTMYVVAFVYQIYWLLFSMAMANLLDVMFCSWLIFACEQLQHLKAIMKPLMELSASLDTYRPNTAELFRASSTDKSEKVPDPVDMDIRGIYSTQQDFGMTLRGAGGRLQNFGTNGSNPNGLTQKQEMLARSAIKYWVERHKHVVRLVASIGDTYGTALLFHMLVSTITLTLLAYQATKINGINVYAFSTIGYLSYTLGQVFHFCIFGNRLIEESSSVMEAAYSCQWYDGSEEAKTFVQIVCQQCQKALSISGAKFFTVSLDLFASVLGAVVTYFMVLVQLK
Nature of the assay: two-electrode voltage clamp, Xenopus oocytes. It is filed as cell-based. Particulars: agonist 10-4 mol/L; co-expressed CmedORco; holding potential -80 mV; pH 7.5. (Two-electrode voltage clamp is typically applied to oocytes expressing channels or transporters.)

As to `CCCC/C=C\CCCCCCCCCC=O` [Z11-16:Ald], the response current is more than 140 nA.

Regarding `CCCC/C=C\CCCCCCCCCCCCO` [Z13-18:OH, (Z)-13-octadecen-1-ol], the response current came to 46 ± 1.6 nA.

`CCCCCC/C=C\CCCCCCCC=O` [Z9-16:Ald] had a response current of more than 140 nA.

For the molecule `CCCC/C=C\CCCCCCCCCCCC=O` [Z13-18:Ald, (Z)-13-octadecenal], the response current is listed as 106 ± 6.4 nA.
